Assay results as given in patent publication US12714702B2, “Compositions and methods for treating or preventing pulmonary hypertension” (priority 2020, dated 2026).

Assays:
[1] = test system: IL-6, Acta2, serpinel, Id3, BMPR2 mRNA; assay: SU5416/hypoxia model, mRNA expression by real time PCR; format: in vivo, rat; conditions: SU5416/hypoxia rats
[2] = test system: MCT-induced rodent model of pulmonary hypertension; assay: Monocrotaline (MCT) induced therapeutic rat model of pulmonary hypertension, hemodynamics; format: in vivo; conditions: MCT rats, QA 10 mg/kg s.c. once-a-day for 10 days starting 3 weeks after MCT
Method: Adult male SD rats were injected with MCT (50 mg/kg) by subcutaneous injection. QA administration was initiated 21 days (3 weeks) after MCT administration, once-a-day by subcutaneous route at 10 mg/kg for 10 days. […] Data represent mean±SEM (n=5). *p<0.05.
Preclinical in-vivo studies for QA were earlier performed at a dose of 10 mg/kg once-a-day in monocrotaline (MCT) induced therapeutic PAH model. Hemodynamic parameters were collected and lung tissues were also collected and were sectioned for visualizing the impact of QA treatment on various PAH biomarkers in-vivo.
To determine the therapeutic activity of QA against PH, the drug was tested using chronic hemodynamic studies in a monocrotaline (MCT)-induced rodent model of pulmonary hypertension. MCT induction is a well established preliminary model, with a single subcutaneous injection of MCT producing chronic PH-like symptoms in rats over a course of 3-4 weeks. Briefly, MCT was subcutaneously injected in adult male Sprague Dawley (SD) rats at 50 mg/kg, and rats were housed for 3 weeks with free access to food and water. […] At the end of day 10, animals were anesthetized to determine right ventricular systolic pressure (RVSP) by RV catheterization, and RV hypertrophy (RVH) was measured by collecting the heart-lung blocks.

[3] = test system: LC3B-II in high-altitude bovine PASMCs; assay: Autophagy inhibition assay (LC3B-II expression), western blot; format: cell-based; conditions: high altitude bovine PASMC cell lysate, QA 5 μM
Method: In FIGS. 9A-9B, PASMC were serum starved for 24 hours, and then treated with varying QA concentrations in serum-starved media. Quantification was performed using Cyto-ID® autophagy kit and Annexin-V/FITC apoptosis kit. […] In FIG. 9C, autophagy inhibition by QA (5 μM) as depicted by increase in LC3B-II concentration in bovine high altitude PASMC quantified by western blot assay kit. Data represent mean±SD (n=3). *p<0.05.
High-altitude bovine PASMCs were used to determine the effect of QA on LC3B-II, an autophagy marker, by western blotting (#3868S, LC3B (D11) XP Rabbit monoclonal antibody, Cell Signaling, Danvers, MA).
Autophagy inhibition (lysosomal fusion with autophagosomes) by QA was examined. Bovine PASMCs were serum starved in FBS-free media for 24 hours, and then treated with QA (2.5 and 5 μM) for 24 hours. Autophagic inhibition was measured with Cyto-ID® autophagy detection kit. […] QA-induced autophagy inhibition by targeting LC3B-II expression was examined using HAPASMCs.

[4] = test system: p62, BMPR2, LC3B-II, p21, p65, phospho-AKT, phospho-p65 in right lung; assay: SU5416/hypoxia model, western blot of right lung homogenate; format: in vivo, rat
Text: FIGS. 18E-18F show western blot analysis of tissue (right lung) lysates for expression of various disease marker proteins including p62, BMPR2, LC3B-II, p21, p65, p53, phosphorylated-p53 and phosphorylated-AKT using corresponding monoclonal antibodies.
The accumulation of p62, a protein degraded by autophagy pathways, is indicative of autophagy inhibition.

bovine HAPASMC = assay: Anti-proliferative efficacy in high-altitude bovine PASMC; format: cell-based; conditions: inherently highly proliferating bovine HAPASMC, 1.5-5.0 μM, time- and concentration-dependent
Method: (§1) Data represent mean±SD (n=5) repeated over 3 experiments. *p<0.05.
(§2) Human or bovine PASMC were treated with varying concentrations of QA (1.5-, 3.1-, and 6.2-μM). Cellular proliferation was measured at day 1, day 3 and day 5 by following the manufacturer's protocol. Briefly, a reagent mix of nucleic acid stain and background suppressor were added in PBS followed by addition of the mix in treatment wells (100 μL/well). The plates were incubated at 37° C./5% CO2 for one hour followed by evaluation of fluorescence at 485 ex/535 em. Proliferation inhibition was analyzed relative to control wells on each time point. Data was averaged from two trials with n=6 for SMC II and one trial of n=4 for SMC III.
(§3) In-vitro studies to measure anti-proliferative activity of QA against pulmonary hypertension were performed using primary human PASMC (FIG. 3), primary bovine PASMC (FIG. 4) and high altitude PASMC (HAPASMC) (FIG. 4). HAPASMC, due to prolonged hypoxia exposure, are known to be hyper-proliferative in regular culture conditions, while hyper-proliferation was induced in PASMC cells by 24 hour serum starvation, or by exposure to 5-hydroxytryptamine (5-HT). […]

[5] = test system: pulmonary arteries of MCT-induced PAH animals; assay: MCT model, trichrome staining of lung sections and medial wall thickness; format: in vivo, rat; conditions: MCT rats
Text: At the end of treatment period with QA, animals were sacrificed. Chest was surgically opened to expose rat lungs. Lung tissues were collected, and blinded tissues were sectioned by Reveal Bio (San Diego, CA) at 5 μm thickness. 2 tissue sections for each animal were earmarked for Trichrome staining; and 8 more sections were provided blank for custom staining.
Tissue sections were stained using trichrome staining to visualize pulmonary arteries for all treatment and control groups. Stained lung sections were imaged using Zeiss Axio Scope A1 microscope equipped with Axiocam 506 color camera and Zeiss Zen 2.3 software. Medial wall thickness for similar sized pulmonary arteries was measured using a Motic BA210 microscope and measurements were made using Motic Image plus 2.0 software. Five pulmonary artery walls were analyzed per animal (n=2 to 5)
Additionally, lung tissue sections from the MCT-induced PAH lung tissue were examined using trichrome staining.
Medial wall thickness of pulmonary arteries was measured using the trichrome stained microscopic images.

[6] = test system: serum-starved bovine PASMC; assay: Anti-proliferative efficacy in serum-starved bovine PASMC; format: cell-based; conditions: 1.5-5.0 μM, time- and concentration-dependent
Method: as §1, §2, §3

ITCH/AIP4 E3 ligase = ITCH/AIP4 E3 ligase (Homo sapiens, UniProt Q96J02); assay: ITCH/AIP4 E3 ligand activity assay, ubiquitin ELISA (UbiQuant); format: biochemical; conditions: 20 μM dose
Chain of ITCH/AIP4 E3 ligase (Q96J02 whole entry): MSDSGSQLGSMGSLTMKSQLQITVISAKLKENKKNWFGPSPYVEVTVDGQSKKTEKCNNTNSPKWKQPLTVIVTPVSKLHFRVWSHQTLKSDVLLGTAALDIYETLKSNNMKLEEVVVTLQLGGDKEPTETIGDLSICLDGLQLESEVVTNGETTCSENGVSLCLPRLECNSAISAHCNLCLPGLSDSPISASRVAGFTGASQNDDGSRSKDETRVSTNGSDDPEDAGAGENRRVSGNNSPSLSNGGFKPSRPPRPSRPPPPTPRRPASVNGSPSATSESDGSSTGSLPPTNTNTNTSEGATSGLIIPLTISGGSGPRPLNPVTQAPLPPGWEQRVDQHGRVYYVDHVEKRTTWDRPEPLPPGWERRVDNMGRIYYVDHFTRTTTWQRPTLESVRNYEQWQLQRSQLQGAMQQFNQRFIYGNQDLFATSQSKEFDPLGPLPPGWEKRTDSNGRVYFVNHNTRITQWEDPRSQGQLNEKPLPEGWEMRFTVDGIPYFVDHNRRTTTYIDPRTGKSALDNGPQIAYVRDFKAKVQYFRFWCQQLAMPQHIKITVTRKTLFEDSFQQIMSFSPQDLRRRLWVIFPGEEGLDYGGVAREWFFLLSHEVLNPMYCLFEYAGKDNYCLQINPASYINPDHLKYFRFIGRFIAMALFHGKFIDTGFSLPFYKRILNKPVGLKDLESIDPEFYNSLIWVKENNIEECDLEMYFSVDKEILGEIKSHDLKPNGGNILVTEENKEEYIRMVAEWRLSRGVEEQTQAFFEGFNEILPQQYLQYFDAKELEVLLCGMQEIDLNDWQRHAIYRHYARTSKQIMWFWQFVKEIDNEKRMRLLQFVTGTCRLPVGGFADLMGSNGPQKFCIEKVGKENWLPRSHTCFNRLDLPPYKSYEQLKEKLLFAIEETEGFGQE
Method: The ligand activity inhibition by QA at multiple concentrations (0, 10, or 20 μM) in presence of ubiquitin was quantified.

CCN(CC)CCCC(C)Nc1c2ccc(Cl)cc2nc2ccc(OC)cc12 (stereo not shown) [QA, quinacrine]
BMPR2 mRNA expression [1]: no significant changes
Acta2 gene (smooth muscle actin-alpha) expression ([1]; real time PCR): decreased
IL-6 mRNA levels ([1]; real time PCR): decreased
Id3 mRNA level ([1]; real time PCR): did not significantly change
mRNA levels of serpinel ([1]; real time PCR): reduced
right ventricular systolic pressure (RVSP) [2]: 39.9±1.8 mm Hg
increase in LC3B-II expression [3]: > 2 fold
autophagy marker LC3B-II ([4]; right lung homogenate): accumulated
autophagy marker p62 ([4]; right lung homogenate): accumulated
accumulation of BMPR2 ([4]; right lung homogenate, in comparison to control animals): > 2 fold
expression of p21 protein ([4]; tissue lysates): significant increase
expression of phospho-AKT ([4]; tissue lysates): decreased
expression of phospho-p65 ([4]; tissue lysates): decreased
p65 ([4]; tissue lysates): significant reduction
proliferation (bovine HAPASMC): significantly inhibits proliferation
medial wall thickness of pulmonary arteries ([5]; compared to sham control animals): back to almost normal
collagen and muscular deposition in pulmonary arterioles ([5]; trichrome staining): significant reduction
proliferation [6]: significantly inhibits proliferation
reduction in total polyubiquitination resulting from ITCH/AIP4 activity (ITCH/AIP4 E3 ligase): ~ 25%
